Test results published in article PMC8699473, “An Easily Expandable Multi-Drug LC-MS Assay for the Simultaneous Quantification of 57 Oral Antitumor Drugs in Human Plasma” (Cancers, 2021).

Test: Long-term stability in spiked pooled human plasma

Structure (SMILES)	Long-term stability, 1 month, -20°C Accuracy [%] (validation standard 2xLLOV)	Long-term stability, 1 month, -80°C Accuracy [%] (validation standard 2xLLOV)	Long-term stability, 2 month, -20°C Accuracy [%] (validation standard 2xLLOV)	Long-term stability, 2 month, -80°C Accuracy [%] (validation standard 2xLLOV)	Long-term stability, 3 month, -20°C Accuracy [%] (validation standard 2xLLOV)	Long-term stability, 3 month, -80°C Accuracy [%] (validation standard 2xLLOV)	Long-term stability, 1 month, -20°C Accuracy [%] (validation standard LLOV)	Long-term stability, 1 month, -80°C Accuracy [%] (validation standard LLOV)	Long-term stability, 2 month, -20°C Accuracy [%] (validation standard LLOV)	Long-term stability, 2 month, -80°C Accuracy [%] (validation standard LLOV)	Long-term stability, 3 month, -80°C Accuracy [%] (validation standard LLOV)	Long-term stability, 1 month, -80°C Accuracy [%] (validation standard MOV)	Long-term stability, 2 month, -20°C Accuracy [%] (validation standard MOV)	Long-term stability, 2 month, -80°C Accuracy [%] (validation standard MOV)	Long-term stability, 3 month, -80°C Accuracy [%] (validation standard MOV)	Long-term stability, 1 month, -20°C Accuracy [%] (validation standard ULOV)	Long-term stability, 1 month, -80°C Accuracy [%] (validation standard ULOV)	Long-term stability, 2 month, -20°C Accuracy [%] (validation standard ULOV)	Long-term stability, 2 month, -80°C Accuracy [%] (validation standard ULOV)	Long-term stability, 3 month, -80°C Accuracy [%] (validation standard ULOV)	other results
CNC(=O)c1cc(Oc2ccc(NC(=O)Nc3ccc(Cl)c(C(F)(F)F)c3)c(F)c2)ccn1 [Regorafenib]	101.2%	104.0%	105.6%	104.3%	90.7%	103.7%	105.4%	102.9%	106.3%	104.7%	105.1%	106.3%	105.8%	112.2%	100.4%	104.7%	103.8%	108.5%	107.0%	103.1%	Long-term stability, 6 weeks, 4°C, without daylight Accuracy [%] (validation standard 2xLLOV): 80.6%; Long-term stability, 3 month, -20°C Accuracy [%] (validation standard LLOV): 94.0%; Long-term stability, 6 weeks, 4°C, without daylight Accuracy [%] (validation standard LLOV): 79.3%; Long-term stability, 1 month, -20°C Accuracy [%] (validation standard MOV): 101.6%; Long-term stability, 3 month, -20°C Accuracy [%] (validation standard MOV): 97.1%; Long-term stability, 6 weeks, 4°C, without daylight Accuracy [%] (validation standard MOV): 101.0%; Long-term stability, 3 month, -20°C Accuracy [%] (validation standard ULOV): 92.9%; Long-term stability, 6 weeks, 4°C, without daylight Accuracy [%] (validation standard ULOV): 95.5%
CN(C)C(=O)c1cc2cnc(Nc3ccc(N4CCNCC4)cn3)nc2n1C1CCCC1 [Ribociclib]		98.5%	109.0%	112.4%		106.4%	88.0%	83.5%	92.7%	94.7%	90.7%	101.3%	108.6%	108.1%	104.3%	91.9%	90.7%	98.7%	98.8%	92.7%	Long-term stability, 6 weeks, 4°C, without daylight Accuracy [%] (validation standard 2xLLOV): 96.4%; Long-term stability, 6 weeks, 4°C, without daylight Accuracy [%] (validation standard LLOV): 76.6%; Long-term stability, 6 weeks, 4°C, without daylight Accuracy [%] (validation standard MOV): 107.4%; Long-term stability, 6 weeks, 4°C, without daylight Accuracy [%] (validation standard ULOV): 96.3%
CNCc1ccc(-c2[nH]c3cc(F)cc4c3c2CCNC4=O)cc1 [Rucaparib]	95.4%	89.7%	100.7%	99.7%	95.9%	94.7%	104.7%	102.1%	115.1%	112.2%	108.0%	95.5%	104.6%	102.1%	97.2%	99.8%	94.8%	104.3%	102.7%	98.3%	Long-term stability, 6 weeks, 4°C, without daylight Accuracy [%] (validation standard 2xLLOV): 93.1%; Long-term stability, 3 month, -20°C Accuracy [%] (validation standard LLOV): 109.6%; Long-term stability, 6 weeks, 4°C, without daylight Accuracy [%] (validation standard LLOV): 104.4%; Long-term stability, 1 month, -20°C Accuracy [%] (validation standard MOV): 98.5%; Long-term stability, 3 month, -20°C Accuracy [%] (validation standard MOV): 101.6%; Long-term stability, 6 weeks, 4°C, without daylight Accuracy [%] (validation standard MOV): 103.5%; Long-term stability, 3 month, -20°C Accuracy [%] (validation standard ULOV): 100.6%; Long-term stability, 6 weeks, 4°C, without daylight Accuracy [%] (validation standard ULOV): 100.2%
N#CC[C@H](C1CCCC1)n1cc(-c2ncnc3[nH]ccc23)cn1 [Ruxolitinib]	101.5%	93.0%	97.7%	100.0%	97.5%	99.4%	95.6%	94.6%	98.6%	99.8%	96.5%	94.2%	97.7%	96.8%	94.6%	95.3%	91.6%	95.3%	95.8%	94.5%	Long-term stability, 6 weeks, 4°C, without daylight Accuracy [%] (validation standard 2xLLOV): 93.8%; Long-term stability, 3 month, -20°C Accuracy [%] (validation standard LLOV): 101.8%; Long-term stability, 6 weeks, 4°C, without daylight Accuracy [%] (validation standard LLOV): 97.9%; Long-term stability, 1 month, -20°C Accuracy [%] (validation standard MOV): 95.8%; Long-term stability, 3 month, -20°C Accuracy [%] (validation standard MOV): 97.0%; Long-term stability, 6 weeks, 4°C, without daylight Accuracy [%] (validation standard MOV): 97.6%; Long-term stability, 3 month, -20°C Accuracy [%] (validation standard ULOV): 95.4%; Long-term stability, 6 weeks, 4°C, without daylight Accuracy [%] (validation standard ULOV): 96.6%
Cc1c(C(=O)Nc2ccc(N3C[C@@H](C)O[C@@H](C)C3)nc2)cccc1-c1ccc(OC(F)(F)F)cc1 [Sonidegib]	106.2%	108.9%	111.0%	107.0%	96.1%	104.6%	109.9%	108.6%	105.8%	104.4%	109.9%	108.0%	114.5%	119.3%	99.2%	106.5%	105.4%	122.3%	122.3%	100.0%	Long-term stability, 6 weeks, 4°C, without daylight Accuracy [%] (validation standard 2xLLOV): 91.2%; Long-term stability, 3 month, -20°C Accuracy [%] (validation standard LLOV): 103.1%; Long-term stability, 6 weeks, 4°C, without daylight Accuracy [%] (validation standard LLOV): 89.3%; Long-term stability, 1 month, -20°C Accuracy [%] (validation standard MOV): 104.9%; Long-term stability, 3 month, -20°C Accuracy [%] (validation standard MOV): 95.1%; Long-term stability, 6 weeks, 4°C, without daylight Accuracy [%] (validation standard MOV): 106.1%; Long-term stability, 3 month, -20°C Accuracy [%] (validation standard ULOV): 89.3%; Long-term stability, 6 weeks, 4°C, without daylight Accuracy [%] (validation standard ULOV): 100.7%
CNC(=O)c1cc(Oc2ccc(NC(=O)Nc3ccc(Cl)c(C(F)(F)F)c3)cc2)ccn1 [Sorafenib]	103.7%	110.1%	109.9%	106.2%	94.5%	108.7%	106.1%	102.7%	109.0%	106.5%	111.4%	108.3%	112.2%	118.4%	100.4%	104.5%	103.5%	116.0%	114.3%	102.3%	Long-term stability, 6 weeks, 4°C, without daylight Accuracy [%] (validation standard 2xLLOV): 74.5%; Long-term stability, 3 month, -20°C Accuracy [%] (validation standard LLOV): 100.5%; Long-term stability, 6 weeks, 4°C, without daylight Accuracy [%] (validation standard LLOV): 71.1%; Long-term stability, 1 month, -20°C Accuracy [%] (validation standard MOV): 106.1%; Long-term stability, 3 month, -20°C Accuracy [%] (validation standard MOV): 94.0%; Long-term stability, 6 weeks, 4°C, without daylight Accuracy [%] (validation standard MOV): 106.5%; Long-term stability, 3 month, -20°C Accuracy [%] (validation standard ULOV): 90.5%; Long-term stability, 6 weeks, 4°C, without daylight Accuracy [%] (validation standard ULOV): 99.7%
CCN(CC)CCNC(=O)c1c(C)[nH]c(/C=C2\C(=O)Nc3ccc(F)cc32)c1C [Sunitinib]	121.2%	108.5%	108.9%	108.9%	123.9%	131.1%	132.8%	122.7%	114.3%	112.8%	135.5%	107.0%	106.3%	102.8%	120.9%	119.5%	109.0%	109.7%	108.8%	118.4%	Long-term stability, 6 weeks, 4°C, without daylight Accuracy [%] (validation standard 2xLLOV): 85.9%; Long-term stability, 3 month, -20°C Accuracy [%] (validation standard LLOV): 130.7%; Long-term stability, 6 weeks, 4°C, without daylight Accuracy [%] (validation standard LLOV): 96.2%; Long-term stability, 1 month, -20°C Accuracy [%] (validation standard MOV): 118.5%; Long-term stability, 3 month, -20°C Accuracy [%] (validation standard MOV): 123.6%; Long-term stability, 6 weeks, 4°C, without daylight Accuracy [%] (validation standard MOV): 109.9%; Long-term stability, 3 month, -20°C Accuracy [%] (validation standard ULOV): 122.5%; Long-term stability, 6 weeks, 4°C, without daylight Accuracy [%] (validation standard ULOV): 105.4%
O=C1CCC(N2C(=O)c3ccccc3C2=O)C(=O)N1 (stereo not shown) [Thalidomide]	75.6%	74.9%	58.1%	79.7%	50.7%	79.8%	71.4%	76.7%	57.5%	72.7%	76.7%	73.1%	57.0%	77.9%	75.0%	68.6%	66.3%	42.5%	79.5%	78.0%	Long-term stability, 3 month, -20°C Accuracy [%] (validation standard LLOV): 43.9%; Long-term stability, 1 month, -20°C Accuracy [%] (validation standard MOV): 66.7%; Long-term stability, 3 month, -20°C Accuracy [%] (validation standard MOV): 50.8%; Long-term stability, 3 month, -20°C Accuracy [%] (validation standard ULOV): 33.5%
